Measured values from article PMC9814340, “CDK8/19 inhibition plays an important role in pancreatic β-cell induction from human iPSCs” (Stem Cell Research & Therapy, 2023).
“Also recorded” adds a separate entry of the source. Read-outs that look alike come from different tables or passages of the source.

Tests used:
[1] = system: Salmonella typhimurium TA100, TA1535, TA98, and TA1537, and Escherichia coli WP2uvrA; test: Ames mutagenicity assay (bacterial reverse mutation test), five strains, absence of rat liver S9; settings: for Ames Mutagenicity: result in words, absence of rat liver S9, 78.1-5000 μg/plate
From the text: (§1) Salmonella typhimurium TA100, TA1535, TA98, and TA1537, and Escherichia coli WP2uvrA were used to detect either frameshift mutations (TA98 and TA1537) or base pair substitutions (TA100, TA1535, and WP2uvrA). These strains are widely used and recommended for use in ICH S2(R1) for the bacterial reversion assay.
(§2) In the current study, rat liver S9 fraction, […], was not included because the mutagenicity of compounds should be assessed when simulating cell cultures but not in vivo after metabolism by liver enzymes. Briefly, each tester strain was mixed with seven concentrations (78.1–5000 μg/plate) of each compound and preincubated for 20 min in test tubes. Two plates per dose for the tested compounds and positive control group, and four plates per dose for the negative control group were used. Dimethyl sulfoxide (FUJIFILM Wako) was selected as solvent for the tested compounds and used as negative control. […] Following preincubation, semisolid top agar was added to the tubes, and then, the mixtures were overlaid on minimal glucose agar plates. After the overlaid agar solidified, the plates were stored at 37 °C in an incubator for 48 h.
(§3) Cultures were examined for signs of compound precipitation and other abnormal conditions by eye. Subsequently, cytotoxicity (decreased background lawn) was assessed using a stereomicroscope. The number of revertant colonies on the plates was counted using an automatic colony analyzer (CA-11, System Science Co., Ltd., Tokyo, Japan) or manually when counting by the automatic colony analyzer was inappropriate, e.g., when precipitation was observed.

ALK5 = molecular target: T1, ALK5 (Homo sapiens, UniProt P36897); test: TR-FRET-based competitive binding kinase profiling assay; settings: Yes/No summary of Fig. 1d; method not given
T1 construct: Axcelead Drug Discovery Partners (ran the assay)
T1 sequence (P36897 34-503): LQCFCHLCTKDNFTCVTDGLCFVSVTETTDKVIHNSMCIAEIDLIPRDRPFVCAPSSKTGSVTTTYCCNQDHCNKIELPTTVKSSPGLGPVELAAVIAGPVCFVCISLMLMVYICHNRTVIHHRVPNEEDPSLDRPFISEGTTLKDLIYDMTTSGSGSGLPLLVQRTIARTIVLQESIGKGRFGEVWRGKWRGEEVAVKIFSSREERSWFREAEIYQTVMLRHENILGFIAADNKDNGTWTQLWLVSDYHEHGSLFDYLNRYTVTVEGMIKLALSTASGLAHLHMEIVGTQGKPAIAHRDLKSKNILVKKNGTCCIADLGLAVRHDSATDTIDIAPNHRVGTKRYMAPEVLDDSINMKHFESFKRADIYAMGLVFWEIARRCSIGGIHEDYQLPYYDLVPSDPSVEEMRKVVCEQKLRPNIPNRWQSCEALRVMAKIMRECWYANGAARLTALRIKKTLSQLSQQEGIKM

[2] = system: Salmonella typhimurium TA1537
From the text: as §1, §2, §3

[3] = system: β-cells (INS+NKX6.1+) differentiated from human iPSC line Ff-I14-s04; test: β-cell induction in iPIC differentiation from hiPSCs (compound at stages 5-7), flow cytometry; type: cell-based; settings: for proportion of β-cells (INS+NKX6.1+), representative dot plot: Fig. 3a
Description: For differentiation culture to generate iPICs, we used 2D monolayer to static aggregate culture based on our previous report and 3D stirred-floating aggregate culture. The details of the typical 3D floating culture were as follows.
PD-166866 (1 μM, Merck Millipore) was added from day 4 of stage 6.
Stage 7 medium was based on a previous report with our original modifications. […] To generate iPICs for implantation, cells were dissociated and re-sized in an Elplasia 6-well microwell plate (Corning Incorporated, Corning, NY, USA) or a gas-permeable microwell culture bag (Toyo Seikan Group Holdings, Ltd., Yokohama, Japan) and cultured in the stage 7 medium.
The differentiation efficiency of β-cells (INS^+NKX6.1^+) and endocrine cells (CHGA^+) was analyzed using immunostaining methods and flow cytometry on an LSRFortessa X20 instrument (BD Corporation, Franklin Lakes, NJ, USA), as described previously. The primary antibodies used are detailed in Additional file 1: Table S1. Secondary antibodies were conjugated to Alexa Fluor 488, 546, 568, and 647 of the appropriate species (Thermo Fisher Scientific or Jackson ImmunoResearch, West Grove, PA, USA).

RIPK2 = RIPK2 (Homo sapiens, UniProt O43353); test: biochemical
Chain of RIPK2 (O43353 whole entry, species assumed): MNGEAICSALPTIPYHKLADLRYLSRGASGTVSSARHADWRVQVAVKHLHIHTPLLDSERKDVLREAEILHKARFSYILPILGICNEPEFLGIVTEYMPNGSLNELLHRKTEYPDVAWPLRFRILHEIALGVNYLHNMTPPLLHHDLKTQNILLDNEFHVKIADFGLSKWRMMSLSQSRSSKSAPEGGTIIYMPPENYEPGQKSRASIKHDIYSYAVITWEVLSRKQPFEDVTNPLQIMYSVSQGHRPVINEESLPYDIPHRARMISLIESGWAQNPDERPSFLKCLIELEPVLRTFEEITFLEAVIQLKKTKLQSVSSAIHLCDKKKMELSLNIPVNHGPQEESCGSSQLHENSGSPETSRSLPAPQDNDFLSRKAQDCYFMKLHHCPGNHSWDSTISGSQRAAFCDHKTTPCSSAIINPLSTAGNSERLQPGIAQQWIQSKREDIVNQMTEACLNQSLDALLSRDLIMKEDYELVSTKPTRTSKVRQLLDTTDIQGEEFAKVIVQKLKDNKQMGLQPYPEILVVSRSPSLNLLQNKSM
Description: (§4) Briefly, BODIPY-FL- or Cy5-FL-conjugated staurosporine derivative that binds to a highly conserved ATP-binding pocket in kinases was used as a fluorescent probe and tested compounds were applied at 0.1 and 1 μM in competitive binding assays for ~ 350 recombinant protein kinases. TR-FRET fluorescent signals from terbium and BODIPY/Cy5-FL were measured using an EnVision plate reader (PerkinElmer, Waltham, MA, USA), and pIC50 values were extrapolated from the inhibition rate.

CDK8 [4] = molecular target: T2, CDK8 (Homo sapiens, UniProt P49336); test: biochemical
T2 sequence (P49336 whole entry, species assumed): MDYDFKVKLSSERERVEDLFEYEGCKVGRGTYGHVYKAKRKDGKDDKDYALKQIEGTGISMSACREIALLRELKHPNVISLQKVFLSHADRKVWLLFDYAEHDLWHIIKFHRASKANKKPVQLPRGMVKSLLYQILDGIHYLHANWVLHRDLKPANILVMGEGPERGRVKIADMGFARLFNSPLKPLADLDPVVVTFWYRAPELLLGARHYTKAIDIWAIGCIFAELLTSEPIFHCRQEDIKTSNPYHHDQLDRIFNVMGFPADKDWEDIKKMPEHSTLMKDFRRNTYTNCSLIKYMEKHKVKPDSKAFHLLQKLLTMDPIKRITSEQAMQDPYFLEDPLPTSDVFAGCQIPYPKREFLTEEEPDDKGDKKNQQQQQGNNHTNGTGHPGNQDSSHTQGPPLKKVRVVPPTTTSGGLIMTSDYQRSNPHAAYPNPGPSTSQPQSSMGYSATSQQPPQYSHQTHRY
T2 sequence (P24863 whole entry partner, species assumed): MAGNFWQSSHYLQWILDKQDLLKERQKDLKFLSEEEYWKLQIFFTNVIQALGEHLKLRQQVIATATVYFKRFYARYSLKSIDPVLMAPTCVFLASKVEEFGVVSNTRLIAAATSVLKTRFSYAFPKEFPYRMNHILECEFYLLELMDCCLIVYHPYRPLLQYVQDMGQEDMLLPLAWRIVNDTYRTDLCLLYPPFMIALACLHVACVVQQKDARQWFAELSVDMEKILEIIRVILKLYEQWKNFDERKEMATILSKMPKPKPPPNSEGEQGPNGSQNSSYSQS
Description: as §4

TNIK = TNIK (Homo sapiens, UniProt Q9UKE5); test: biochemical
Chain of TNIK (Q9UKE5 whole entry, species assumed): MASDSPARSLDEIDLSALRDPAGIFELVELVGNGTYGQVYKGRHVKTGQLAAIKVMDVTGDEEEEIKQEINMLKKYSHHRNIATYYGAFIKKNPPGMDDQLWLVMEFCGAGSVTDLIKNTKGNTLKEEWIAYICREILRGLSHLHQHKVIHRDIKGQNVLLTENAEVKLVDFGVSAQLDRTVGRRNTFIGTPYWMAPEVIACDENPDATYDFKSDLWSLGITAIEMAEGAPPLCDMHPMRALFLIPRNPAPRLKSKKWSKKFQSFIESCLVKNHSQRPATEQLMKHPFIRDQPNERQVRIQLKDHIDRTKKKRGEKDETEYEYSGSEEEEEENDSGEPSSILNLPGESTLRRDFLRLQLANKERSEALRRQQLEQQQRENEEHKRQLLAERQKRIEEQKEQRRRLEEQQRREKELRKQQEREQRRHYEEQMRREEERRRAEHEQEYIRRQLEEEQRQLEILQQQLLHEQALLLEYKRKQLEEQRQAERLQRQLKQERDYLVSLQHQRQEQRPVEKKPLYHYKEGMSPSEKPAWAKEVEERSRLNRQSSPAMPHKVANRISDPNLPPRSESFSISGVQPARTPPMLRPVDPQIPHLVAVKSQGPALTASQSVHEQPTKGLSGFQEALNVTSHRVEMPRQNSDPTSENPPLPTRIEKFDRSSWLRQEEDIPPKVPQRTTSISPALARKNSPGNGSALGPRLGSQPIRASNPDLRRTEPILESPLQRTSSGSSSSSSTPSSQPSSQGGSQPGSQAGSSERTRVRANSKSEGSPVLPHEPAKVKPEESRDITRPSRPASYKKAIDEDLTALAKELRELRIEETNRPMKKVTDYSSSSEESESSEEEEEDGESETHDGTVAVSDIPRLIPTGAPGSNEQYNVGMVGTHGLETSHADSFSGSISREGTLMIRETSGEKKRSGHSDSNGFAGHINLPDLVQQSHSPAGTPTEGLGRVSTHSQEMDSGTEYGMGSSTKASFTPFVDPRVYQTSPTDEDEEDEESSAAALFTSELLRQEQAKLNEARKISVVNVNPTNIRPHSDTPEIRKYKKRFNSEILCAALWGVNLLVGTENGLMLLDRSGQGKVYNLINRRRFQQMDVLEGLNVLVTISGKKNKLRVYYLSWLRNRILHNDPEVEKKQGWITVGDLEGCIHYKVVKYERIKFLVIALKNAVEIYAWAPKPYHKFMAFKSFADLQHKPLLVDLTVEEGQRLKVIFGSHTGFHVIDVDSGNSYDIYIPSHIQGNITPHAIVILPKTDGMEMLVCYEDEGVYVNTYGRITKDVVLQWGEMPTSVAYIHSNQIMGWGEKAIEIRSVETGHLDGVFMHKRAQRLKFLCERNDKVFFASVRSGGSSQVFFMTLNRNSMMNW
Description: as §4

TGFBR2 = TGFBR2 (Homo sapiens, UniProt P37173); test: biochemical
Chain of TGFBR2 (P37173 23-567, species assumed): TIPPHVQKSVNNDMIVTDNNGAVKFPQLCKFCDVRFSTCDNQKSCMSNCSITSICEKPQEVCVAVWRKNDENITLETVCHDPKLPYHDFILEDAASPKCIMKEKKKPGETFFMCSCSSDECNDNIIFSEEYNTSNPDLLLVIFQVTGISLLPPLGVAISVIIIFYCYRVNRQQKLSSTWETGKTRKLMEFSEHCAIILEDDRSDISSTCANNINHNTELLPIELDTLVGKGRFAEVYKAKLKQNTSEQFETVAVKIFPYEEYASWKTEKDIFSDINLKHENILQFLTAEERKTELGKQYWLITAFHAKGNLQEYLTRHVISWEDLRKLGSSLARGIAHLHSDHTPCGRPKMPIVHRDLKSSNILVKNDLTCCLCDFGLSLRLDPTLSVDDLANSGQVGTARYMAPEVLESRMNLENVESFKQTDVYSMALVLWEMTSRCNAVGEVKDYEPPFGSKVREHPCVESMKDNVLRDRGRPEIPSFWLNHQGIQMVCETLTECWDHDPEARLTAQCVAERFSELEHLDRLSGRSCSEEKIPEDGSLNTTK
Description: as §4

CDK19 = CDK19 (Homo sapiens, UniProt Q9BWU1); test: biochemical
Chain of CDK19 (Q9BWU1 whole entry, species assumed): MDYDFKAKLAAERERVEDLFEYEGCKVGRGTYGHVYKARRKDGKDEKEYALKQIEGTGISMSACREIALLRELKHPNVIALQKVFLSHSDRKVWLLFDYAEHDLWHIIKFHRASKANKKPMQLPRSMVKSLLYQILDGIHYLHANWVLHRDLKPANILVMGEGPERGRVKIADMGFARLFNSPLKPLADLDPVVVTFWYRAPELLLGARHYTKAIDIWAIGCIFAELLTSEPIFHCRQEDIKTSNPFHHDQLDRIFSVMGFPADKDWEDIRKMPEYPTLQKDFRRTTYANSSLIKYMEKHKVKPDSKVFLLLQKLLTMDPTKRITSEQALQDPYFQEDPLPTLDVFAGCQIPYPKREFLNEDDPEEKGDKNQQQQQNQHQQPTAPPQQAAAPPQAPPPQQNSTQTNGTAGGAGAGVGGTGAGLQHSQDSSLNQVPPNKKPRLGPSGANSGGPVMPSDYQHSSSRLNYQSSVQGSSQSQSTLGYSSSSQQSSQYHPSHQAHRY
Chain of CDK19 (P24863 whole entry partner, species assumed): as the sequence (P24863 whole entry partner, species assumed) above
Description: as §4

CDK8 [5] = molecular target: T2, CDK8; design: Axcelead Drug Discovery Partners (ran the assay); method as in PMID 28392276; settings: cited from earlier work

Cc1cccc(-c2[nH]c(C(C)(C)C)nc2-c2ccc3nccnc3c2)n1 [SB525334]
Ames Mutagenicity [1]: Negative; also recorded: did not have mutagenic potential

Cc1cccc(-c2n[nH]cc2-c2ccc3ncccc3n2)n1 [ALK5iII]
ALK5 inhibition (ALK5): Yes
Ames response in the TA1537 strain [2]: positive response
TA1537, -S9 # colony ([2]; Salmonella typhimurium): 8
proportion of β-cells (INS+NKX6.1+), representative dot plot ([3]; 10 μM ALK5iII at stages 5-7): 35.0%
IC50 (RIPK2): 151 nM
IC50 (CDK8 [4]): 158 nM
IC50 (TNIK): 661 nM
IC50 (TGFBR2): 107 nM
IC50 (CDK19): 66.1 nM
Ames mutagenicity test ([1]; Fig. 1b flowchart, absence of S9, positive = mean revertant colonies at least twofold the negative control in any strain): (+)
Ames Mutagenicity [1]: Positive

Cn1cc(-c2ccnc(O)c2/C=C/C(=O)Nc2ccc(CN3CCOCC3)cc2)cn1 [TR05978156]
β-cell induction / differentiation efficiency ([3]; result in words, compound replaces ALK5iII at stages 5-7): did not induce β-cells efficiently
IC50 (CDK8 [5]): > 10000 nM

CN1CCN(C(=O)c2ccc3cc(CCNc4ncnc5ccc(C#N)cc45)ccc3c2)CC1 [Senexin B]
proportion of β-cells (INS+NKX6.1+), representative dot plot ([3]; 0.1 μM, instead of ALK5iII, stages 5-7): 39.7%

NC(=O)c1ccc(-c2nc(-c3ccc4c(c3)OCO4)c(-c3ccccn3)[nH]2)cc1 [SB431542]
Ames Mutagenicity [1]: did not have mutagenic potential; also recorded: negative

COc1ccc2nc3cc(Cl)ccc3c(NCCCNCCCl)c2c1.Cl.Cl [ICR, [6-Chloro-9-(3-[2-chloroethylamino]propylamino)-2-methoxyacridine] dihydrochloride]
TA1537, -S9 # colony ([2]; positive control, 1.0 μg): 1804

O=C(/C=C/c1cnccc1-c1cnn(C2CC2)c1)Nc1ccc(CN2CCOCC2)cc1 [TR06096159]
IC50 (CDK8 [5]): 6.4 nM

Cl.Nc1c2ccccc2nc2ccccc12.O [9-AA, 9-aminoacridine hydrochloride monohydrate]
TA1537, -S9 # colony ([2]; positive control, 80 μg): 169

CN(C)C(=O)Cn1cc(-c2ccc(-c3cncc4ccccc34)cc2)cn1 [BI-1347]
proportion of β-cells (INS+NKX6.1+), representative dot plot ([3]; 3 nM, instead of ALK5iII, stages 5-7): 39.8%

c1cncc(-c2n[nH]cc2-c2cnc3ccccc3n2)c1 [TR04411299]
ALK5 inhibition (ALK5): No and did not inhibit ALK5
TA1537, -S9 # colony ([2]; 78.1 μg/plate, DMSO control 8 (ALK5 inhibitor II) / 9 (TR04411299)): 5
TA1537, -S9 # colony ([2]; 156 μg/plate, DMSO control 8 / 9): 9
TA1537, -S9 # colony ([2]; 313 μg/plate, DMSO control 8 / 9): 21
TA1537, -S9 # colony ([2]; 625 μg/plate, DMSO control 8 / 9): 45
TA1537, -S9 # colony ([2]; 1250 μg/plate, DMSO control 8 / 9): 82
TA1537, -S9 # colony ([2]; 2500 μg/plate, DMSO control 8 / 9): 128
TA1537, -S9 # colony ([2]; 5000 μg/plate, DMSO control 8 / 9): 194
Ames Mutagenicity [1]: positive result
